Source: patent publication US10598672B2, “Methods and compositions for diagnosing and treating loss and/or distortion of taste or smell” (Cyrano Therapeutics, Inc., priority 2014, dated 2020)

Experiments:
[1] = Serum theophylline level by fluorescence polarization; type: in vivo, human
Experimental: (§1) Serum theophylline levels were measured by fluorescence polarization at each treatment condition. Body weight was measured with a calibrated clinical scale during each study condition and reported at the final measurement in each study condition.

patients with hyposmia = details: previous open-label controlled clinical trial, 312 patients with hyposmia and hypogeusia, oral; cited from earlier work
[2] = Body weight with calibrated clinical scale; type: in vivo, human; details: 10 patients
Experimental: as §1

[3] = test system: patients with hyposmia and hypogeusia; assay: Open-label pilot study oral vs intranasal theophylline: subjective smell and taste function by questionnaire (0-100); type: in vivo, human
Description: (§2) We performed an open-label pilot study in patients with hyposmia and hypogeusia under the following 3 conditions: (1) before treatment, (2) after oral theophylline treatment, and (3) after intranasal theophylline treatment. Under each condition, we performed subjective evaluations of taste or smell functions, quantitative measurements of taste (gustometry) and smell (olfactometry), and measurements of serum theophylline level and body weight.
Subjective changes in smell and taste function under each study condition were measured by questionnaire before measurements of smell or taste function. Responses were graded on a scale from 0 to 100, with 0 reflecting no subjective response in overall sensory function; 100, return to normal sensory function; and values between 0 and 100 intermediate responses. Overall sensory function was defined as the ability to smell all odors and identify all tastants, although response intensity varied.
The 10 patients in this intranasal pilot study entered into the previous oral theophylline study according to a protocol approved by the institutional review board of the Georgetown University Medical Center. In this prior trial, oral theophylline was administered daily in 2 divided doses (at breakfast and lunch) of 200, 400, 600, or 800 mg for 2 to 12 months of treatment. Treatment was divided into 2- to 4-month periods, at which time patients returned to The Clinic for measurements of subjective sensory responses, olfactometry, gustometry, serum theophylline level, and body weight. […] In the 10 patients selected for the intranasal pilot study, oral theophylline treatment was discontinued 3 weeks to 4 months before initiation of the intranasal drug trial. At that time, the mean (SEM) serum theophylline level was unmeasurable in any patient (0 [0] mg/L).
(§3) A pilot study of intranasal theophylline treatment was then initiated among these 10 patients. This trial was an investigator initiated phase 1, open-label, single-source, controlled pilot study. Intranasal drug therapy reflected a compassionate trial of a potentially more useful therapeutic method to improve hyposmia (and hypogeusia) than oral theophylline. Before the intranasal trial, risks and benefits were explained and the patients signed an informed consent.
The intranasal administration device was a calibrated 1 mL syringe fitted with a nozzle that fit comfortably into the anterior naris (Wolfe Tory Medical, Inc.) and loaded under sterile conditions with 20 μg of theophylline methylpropyl paraben in a 0.4-mL saline solution (Foundation Care). Patients were instructed to direct the spray superiorly into the nasal cavity but not posteriorly into the nasopharynx. This technique was practiced before study initiation with sterile saline.
(§4) Each patient delivered the theophylline dose in each naris once daily throughout the study. Patients underwent evaluation 1, 2, and 4 weeks during drug use with the same measurements used for the oral study.
Values for the oral trial were taken from the last measurements made before discontinuation of oral drug treatment and before initiation of the intranasal trial. This period varied from 2 to 12 months after oral treatment initiation and reflected the maximal improvement in sensory function each patient experienced. Values for the intranasal pilot study were taken from measurements obtained after completion of 4 weeks of intranasal treatment.
The mean and standard error of the mean for all values obtained at each study condition were compared. Differences were considered significant if P<0.05 by the unpaired t test. Paired comparison tests were also used with differences considered significant if P<0.05 by the t test.

[4] = test system: patients with hyposmia and hypogeusia; assay: Adverse effects during intranasal theophylline pilot study; type: in vivo, human; details: intranasal drug use, 10 patients, 4 weeks
Description: as §2, §3, §4

[5] = after discontinuation of intranasal treatment

## Cn1c(=O)c2[nH]cnc2n(C)c1=O [theophylline]
[1]; during oral treatment, at time of maximum improvement, 10 patients
  mean (SEM) serum theophylline level: 6.4 (2.0) mg/L
[1]; human, serum, other: intranasal, 20 μg per naris, during intranasal treatment
  concentration at 4 weeks: 0 ng/mL
Patients with hyposmia
  patients in whom hyposmia was successfully corrected: more than 50%
[2]; after intranasal treatment
  weight increase from pretreatment values, mean (SEM): 2.5 (0.5) kg
[2]; after oral treatment
  weight increase from pretreatment values, mean (SEM): 1.5 (0.4) kg
[3]; [5]
  patients reporting some persistence of improvement after 10 weeks: Four
  patients with loss of smell and taste function after 6 weeks: 2 patients
  patients with loss of smell and taste function within 1 week of discontinuation: 2 patients
[3]; intranasal treatment
  earliest improvement measured after starting treatment: 1 week
[3]; intranasal, 4 weeks, subjective
  improvement measured for taste or smell functions compared with oral treatment: 2 fold
[3]; of 10 patients, intranasal treatment
  patients who reported no improvement: 2 patients
[3]; of 10 patients, intranasal, 20 μg in each naris once daily, 4 weeks
  patients with improved taste or smell acuity / overall improvement in taste or smell functions: 8 patients
[3]; of 10 patients, oral treatment
  patients who reported no improvement: 4 patients
[3]; of 10 patients, oral, 200 to 800 mg/d for 2 to 12 months
  patients with improved taste or smell acuity / overall increased taste or smell function: 6 patients
[3]; oral treatment
  earliest improvement of hyposmia measured after: 2 months
[4]
  adverse effects: No adverse effects
